Read-outs that look alike come from different tables or passages of the source.

The target in this experiment is Human Cav3.1 (Homo sapiens (Human), UniProt O43497). The experiment is described as follows: Human Cav3.1 calcium channel patch clamp assay (SyncroPatch 384PE, HEK-293 natClytin/TASK1+Cav3.1 cell line). Format: cell-based. As to the method:
Pulse generation and data collection were performed with PatchController384 V1.3.0 and DataController384 V1.2.1 (Nanion Technologies). Off-line analysis was performed using Excel and Graphpad Prism (V 8.4.2) with complete data files uploaded to Dotmatics. The access resistance and apparent membrane capacitance were estimated using built-in protocols. Current was recorded in whole cell configuration from a population of cells. The cells were lifted, triturated, and resuspended at 800,000 cells/ml. The cells were allowed to recover in the cell hotel prior to experimentation. Currents were recorded at room temperature. The external solution contained the following (in mM): NaCl 80, NMDG 60, KCl 4, MgCl2 1, CaCl2 6, glucose 5 and HEPES 10 (pH=7.4, Osmolarity ˜300 mOsm). The extracellular solution was used as the wash, reference and compound delivery solution. […] The compound plate was created at 2× concentrated in the extracellular solution. The compound was diluted to 1:2 when added to the recording well. The amount of DMSO in the extracellular solution was held constant at the level used for the highest tested concentration. For the voltage clamp experiments on Cav3.1, data were sampled at 10 KHz. After establishment of the seal and the passage in the whole cell configuration, the cells were held at −120 mV. Cav3.1 current was evoked using a 100 ms step to −20 mV (to measure resting state block), followed by a 1600 ms step to −65 mV and a second 100 ms step to −20 mV (to measure voltage dependent block). The voltage protocol was applied every 15 seconds in the absence and in the presence of the compounds under investigation. […] Current amplitude (pA) was measured in the peak 1 and 2. The average of last 3 sweeps of each liquid period (vehicle, compound under investigation, full block) was calculated. Nickel-sensitive current was used to calculate the % of inhibition in the presence of the compound under investigation.
Pulse generation and data collection were performed with PatchController384 V1.3.0 and DataController384 V1.2.1 (Nanion Technologies). Off-line analysis was performed using Excel and Graphpad Prism (V 8.4.2) with complete data files uploaded to Dotmatics. The access resistance and apparent membrane capacitance were estimated using built-in protocols. Current was recorded in whole cell configuration from a population of cells.
The cells were lifted, triturated, and resuspended at 800,000 cells/ml. The cells were allowed to recover in the cell hotel prior to experimentation. Currents were recorded at room temperature. The external solution contained the following (in mM): NaCl 80, NMDG 60, KCl 4, MgCl2 1, CaCl2 6, glucose 5 and HEPES 10 (pH=7.4, Osmolarity ˜300 mOsm). The extracellular solution was used as the wash, reference and compound delivery solution.
The compound plate was created at 2× concentrated in the extracellular solution. The compound was diluted to 1:2 when added to the recording well. The amount of DMSO in the extracellular solution was held constant at the level used for the highest tested concentration. For the voltage clamp experiments on Cav3.1, data were sampled at 10 KHz. After establishment of the seal and the passage in the whole cell configuration, the cells were held at −120 mV. Cav3.1 current was evoked using a 100 ms step to −20 mV (to measure resting state block), followed by a 1600 ms step to −65 mV and a second 100 ms step to −20 mV (to measure voltage dependent block). The voltage protocol was applied every 15 seconds in the absence and in the presence of the compounds under investigation. […] Current amplitude (pA) was measured in the peak 1 and 2. The average of last 3 sweeps of each liquid period (vehicle, compound under investigation, full block) was calculated. Nickel-sensitive current was used to calculate the % of inhibition in the presence of the compound under investigation.
A general note: In patch-clamp work, channel activity is measured electrically.

The mark [1] stands for this setting: voltage dependent block (VDB), read-out: Cav3.1 (VDB) IC50.
Where [2] appears, read: patch clamp, HEK-293 natClytin/TASK1+Cav3.1 cells, class symbols, read-out: Human Cav3.1 IC50.

Human Cav3.1, sequence (O43497 whole entry): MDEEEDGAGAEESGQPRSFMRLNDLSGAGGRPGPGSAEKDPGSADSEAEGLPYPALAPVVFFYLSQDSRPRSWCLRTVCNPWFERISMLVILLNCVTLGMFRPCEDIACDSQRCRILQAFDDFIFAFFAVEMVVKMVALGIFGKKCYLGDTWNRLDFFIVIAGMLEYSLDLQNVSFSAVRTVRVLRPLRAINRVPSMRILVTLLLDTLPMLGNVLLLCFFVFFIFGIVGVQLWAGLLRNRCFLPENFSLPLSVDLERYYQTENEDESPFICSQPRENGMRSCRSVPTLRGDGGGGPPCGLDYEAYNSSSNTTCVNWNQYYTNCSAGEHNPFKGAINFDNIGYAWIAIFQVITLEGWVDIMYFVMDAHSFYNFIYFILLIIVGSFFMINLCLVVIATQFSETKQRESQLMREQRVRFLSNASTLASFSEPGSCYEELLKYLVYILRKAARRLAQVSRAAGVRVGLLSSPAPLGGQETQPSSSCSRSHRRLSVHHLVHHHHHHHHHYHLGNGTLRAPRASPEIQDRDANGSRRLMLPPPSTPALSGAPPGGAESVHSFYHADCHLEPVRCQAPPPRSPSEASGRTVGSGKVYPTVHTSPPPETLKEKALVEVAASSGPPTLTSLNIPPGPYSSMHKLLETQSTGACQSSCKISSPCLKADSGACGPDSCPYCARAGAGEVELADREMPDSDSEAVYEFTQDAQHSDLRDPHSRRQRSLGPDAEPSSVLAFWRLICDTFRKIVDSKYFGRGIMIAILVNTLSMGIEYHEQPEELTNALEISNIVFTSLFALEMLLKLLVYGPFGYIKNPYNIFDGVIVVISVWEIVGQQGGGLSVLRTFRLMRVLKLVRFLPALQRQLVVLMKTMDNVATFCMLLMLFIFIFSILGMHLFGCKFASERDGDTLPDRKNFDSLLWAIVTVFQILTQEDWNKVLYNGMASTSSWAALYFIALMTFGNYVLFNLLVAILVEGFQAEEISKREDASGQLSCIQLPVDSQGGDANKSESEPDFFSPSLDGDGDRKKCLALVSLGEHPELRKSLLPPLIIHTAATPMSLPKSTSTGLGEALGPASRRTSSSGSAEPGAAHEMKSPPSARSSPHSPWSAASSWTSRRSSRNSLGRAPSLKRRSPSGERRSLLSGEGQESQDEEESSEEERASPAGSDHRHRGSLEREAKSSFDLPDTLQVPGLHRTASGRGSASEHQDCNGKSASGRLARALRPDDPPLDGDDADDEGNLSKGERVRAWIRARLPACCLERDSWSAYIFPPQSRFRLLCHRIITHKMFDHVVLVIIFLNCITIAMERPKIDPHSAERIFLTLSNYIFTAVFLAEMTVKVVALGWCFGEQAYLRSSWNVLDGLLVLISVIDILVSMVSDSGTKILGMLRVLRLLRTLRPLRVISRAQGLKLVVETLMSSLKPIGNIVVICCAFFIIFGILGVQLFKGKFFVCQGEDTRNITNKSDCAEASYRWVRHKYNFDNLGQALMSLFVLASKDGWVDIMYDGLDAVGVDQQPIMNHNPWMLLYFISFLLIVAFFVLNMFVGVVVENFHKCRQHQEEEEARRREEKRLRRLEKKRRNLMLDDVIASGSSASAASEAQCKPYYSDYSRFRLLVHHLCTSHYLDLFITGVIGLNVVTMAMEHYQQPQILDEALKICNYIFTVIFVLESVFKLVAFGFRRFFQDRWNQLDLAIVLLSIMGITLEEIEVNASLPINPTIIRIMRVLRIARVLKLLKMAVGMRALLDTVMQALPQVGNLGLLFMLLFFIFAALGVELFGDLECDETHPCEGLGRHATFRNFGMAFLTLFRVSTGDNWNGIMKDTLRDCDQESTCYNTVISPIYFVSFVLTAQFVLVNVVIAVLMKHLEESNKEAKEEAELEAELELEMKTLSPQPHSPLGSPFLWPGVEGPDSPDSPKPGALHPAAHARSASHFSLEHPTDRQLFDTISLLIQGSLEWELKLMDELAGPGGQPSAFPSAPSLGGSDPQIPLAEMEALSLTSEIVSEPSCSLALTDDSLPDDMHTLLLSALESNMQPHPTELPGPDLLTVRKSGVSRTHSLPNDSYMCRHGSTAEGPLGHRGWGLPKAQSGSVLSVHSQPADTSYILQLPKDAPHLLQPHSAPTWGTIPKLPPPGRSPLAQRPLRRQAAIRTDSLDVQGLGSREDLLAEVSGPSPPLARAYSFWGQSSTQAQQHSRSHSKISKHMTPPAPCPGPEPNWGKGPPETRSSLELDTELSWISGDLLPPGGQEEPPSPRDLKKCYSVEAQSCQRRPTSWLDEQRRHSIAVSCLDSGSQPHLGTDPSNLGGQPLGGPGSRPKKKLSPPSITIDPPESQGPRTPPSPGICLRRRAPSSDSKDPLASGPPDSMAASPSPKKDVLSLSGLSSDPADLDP

Consider `N#CC1(CN2CC3(CCC(C(=O)Nc4cc(F)cc(OC(F)F)c4)CC3)C2)CC1` [Example 135], for which, under setting [1], the IC50 – broadly, the midpoint of a concentration-inhibition curve – worked out at 1010 nM. The same measure, in the same setting: the result for `COc1cc(Cl)cc(NC(=O)C2CCC3(CC2)CN(CC(=O)NC(C)(C)C)C3)c1` [Example 159] reads 159 nM; that for `O=C(Nc1cc(F)cc(Cl)c1)C1CCC2(CC1)CN(CC1(O)CCC(F)(F)CC1)C2` [Example 60], 130 nM. Take `CC(C)(C)CCN1CC2(CCC(C(=O)Nc3cc(F)cc(C(F)F)c3)CC2)C1` [Example 33]: the IC50 was under 1000 nM under setting [2] and 339 nM under setting [1]. On to `N#CC1(CN2CC3(CCC(C(=O)Nc4cc(Cl)cc(Cl)c4)CC3)C2)CC1` [Example 128], for which, under setting [1], the IC50 turned out to be 572 nM.

Regarding `N#CC1(CN2CC3(CCC(C(=O)Nc4cc(F)cc(Cl)c4)CC3)C2)CCOCC1` [Example 139], under setting [1], the IC50 worked out at 1370 nM. In the case of `CCOc1cccc(NC(=O)C2CCC3(CC2)CN(CC(=O)NC2(C(F)(F)F)CC2)C3)c1` [Example 114], the IC50 under setting [1] came out at 1130 nM.

With `CC(C)(C)NC(=O)CN1CC2(CCC(C(=O)Nc3cc(F)cc(C(F)F)c3)CC2)C1` [Example 9], the IC50 under setting [2] is under 1000 nM and the IC50 under setting [1] came out at 78.5 nM.

As for `CC(C)(C)c1coc(CN2CC3(CCC(C(=O)Nc4cc(F)cc(Cl)c4)CC3)C2)n1` [Example 20], the IC50 reads like this: under setting [2], under 1000 nM; under setting [1], 988 nM. Take `O=C(Nc1cc(F)cc(Cl)c1)C1CCC2(CC1)CN(CCS(=O)(=O)c1ccccc1)C2` [Example 91]: the IC50 under setting [1] came out at 576 nM.

Turning to `COc1cc(F)cc(NC(=O)C2CCC3(CC2)CN(CC(=O)NC2(C(F)(F)F)CC2)C3)c1` [Example 82], under setting [1], the IC50 was found to be 238 nM.

Turning to `CC(C)(NC(=O)CN1CC2(CCC(C(=O)Nc3cc(F)cc(C(F)F)c3)CC2)C1)C(F)(F)F` [Example 30], the IC50 was under 1000 nM under setting [2] and 192 nM under setting [1]. For `N#CC1(CN2CC3(CCC(C(=O)Nc4cc(F)cc(Cl)c4)CC3)C2)CCCC1` [Example 130], under setting [1], the IC50 worked out at 296 nM. The same measure, in the same setting: the result for `N#CC1(CN2CC3(CCC(C(=O)Nc4cc(F)cc(OC(F)F)c4)CC3)C2)CCCCC1` [Example 133] reads 432 nM. Turning to `O=C(Nc1cc(F)cc(Cl)c1)C1CCC2(CC1)CN(CCC1CCCC1)C2` [Example 17], the IC50 by setting is: under setting [2], under 1000 nM; under setting [1], 182 nM. For the compound `CC(C)(NC(=O)CN1CC2(CCC(C(=O)Nc3cc(F)cc(Cl)c3)CC2)C1)C(F)(F)F` [Example 16], the IC50 is, setting by setting: under setting [2], under 1000 nM; under setting [1], 170 nM. For `COc1cc(F)cc(NC(=O)C2CCC3(CC2)CN(CC2(C#N)CCC(F)(F)CC2)C3)c1` [Example 97], under setting [1], the IC50 was 550 nM. The same measure, in the same setting: next, `Cc1cc(F)cc(C(=O)NCC2CCC3(CC2)CN(CC(=O)NC(C)(C)C)C3)c1` [Example 144]: 804 nM; `CC(C)(C)NC(=O)CN1CC2(CCC(F)(C(=O)Nc3cc(F)cc(C(F)F)c3)CC2)C1` [Example 51]: 469 nM. The same measure, in the same setting: the result for `O=C(CN1CC2(CCC(C(=O)Nc3cc(F)cc(Cl)c3)CC2)C1)NC1(C(F)(F)F)CC1` [Example 58] reads 59.7 nM. Consider `COc1cc(F)cc(NC(=O)C2CCC3(CC2)CN(CC(F)(F)C2CCCCC2)C3)c1` [Example 90], for which the IC50 under setting [1] turned out to be 802 nM. Consider `CC(C)(C)NC(=O)CN1CC2(CCC(C(=O)NC34CCC(CC3)CC4)CC2)C1` [Example 8], for which the IC50 under setting [2] is under 1000 nM and the IC50 under setting [1] was determined as 663 nM.

Take `COc1cc(Cl)cc(NC(=O)C2CCC3(CC2)CN(CC(=O)NC2(C(F)(F)F)CC2)C3)c1` [Example 160]: the IC50 under setting [1] was under 78.2 nM.

With `CC(C)(C)CCN1CC2(CCC(C(=O)Nc3cc(F)cc(Cl)c3)CC2)C1` [Example 161], under setting [1], the IC50 stood at 252 nM. In the case of `CC1(S(=O)(=O)NCCN2CC3(CCC(C(=O)Nc4cc(F)cc(C(F)F)c4)CC3)C2)CC1` [Example 76], the IC50 under setting [1] is 550 nM.

As to `COc1cc(F)cc(NC(=O)C2CCC3(CC2)CN(CC(=O)NC2(C(F)(F)F)CCC2)C3)c1` [Example 84], under setting [1], the IC50 came to 110 nM. The same measure, in the same setting: next, `CC(C)(C)OC(=O)CN1CC2(CCC(C(=O)Nc3cc(F)cc(Cl)c3)CC2)C1` [Example 56]: 513 nM.

On to `O=C(Nc1cc(F)cc(C(F)F)c1)C1CCC2(CC1)CN(CCNC(=O)C1(C(F)(F)F)CC1)C2` [Example 50], for which the IC50 under setting [1] was found to be 284 nM. For `COc1cccc(NC(=O)C2CCC3(CC2)CN(CC(=O)NC2(C(F)(F)F)CC2)C3)c1` [Example 112], under setting [1], the IC50 came to 1430 nM. The same measure, in the same setting: next, `COc1cc(F)cc(NC(=O)C2CCC3(CC2)CN(CC2(C#N)CC2)C3)c1` [Example 138]: 2270 nM. On the same count and under the same terms, the result for `O=C(CN1CC2(CCC(CNC(=O)c3cccc(Cl)c3)CC2)C1)NC1(C(F)(F)F)CC1` [Example 147] reads 534 nM; that for `O=C(Nc1cc(F)cc(C(F)F)c1)C1CCC2(CC1)CN(CC(F)C1CCCC1)C2` (stereo not drawn) [Example 93], 645 nM; that for `CC(C)(C)C(O)CN1CC2(CCC(C(=O)NC34CC5CC(CC(C5)C3)C4)CC2)C1` (stereo not drawn) [Example 152], 583 nM.

As for `O=C(Nc1cc(F)cc(C(F)F)c1)C1CCC2(CC1)CN(CCC1CCCC1)C2` [Example 31], the IC50 runs as follows: under setting [2], under 1000 nM; under setting [1], 376 nM.

Regarding `O=C(CN1CC2(CCC(C(=O)Nc3ccc(Cl)c(F)c3)CC2)C1)NC1(C(F)(F)F)CC1` [Example 120], the IC50 under setting [1] turned out to be 1070 nM. In the case of `O=C(CN1CC2(CCC(C(=O)Nc3cccc(C(F)F)c3)CC2)C1)NC1(C(F)(F)F)CC1` [Example 111], the IC50 under setting [1] stood at 932 nM. The same measure, in the same setting: the result for `CC(C)(C)NC(=O)CN1CC2(CCC(C(=O)Nc3cccc(Cl)c3)CC2)C1` [Example 39] reads 294 nM. Turning to `CC(C)(C)NC(=O)CN1CC2(CCC(C(=O)Nc3ccc(Cl)cc3)CC2)C1` [Example 3], the IC50 is under 1000 nM under setting [2] and 724 nM under setting [1].

For the compound `Cc1cc(NC(=O)C2CCC3(CC2)CN(CC(=O)NC2(C(F)(F)F)CC2)C3)ccc1F` [Example 132], under setting [1], the IC50 stood at 400 nM. Regarding `O=C(CN1CC2(CCC(C(=O)Nc3cccc(OC(F)F)c3)CC2)C1)NC1(C(F)(F)F)CC1` [Example 108], the IC50 under setting [1] was 364 nM.

As for `COc1cc(NC(=O)C2CCC3(CC2)CN(CC(=O)NC2(C(F)(F)F)CC2)C3)ccc1Cl` [Example 158], under setting [1], the IC50 was 162 nM. Consider `O=C(Nc1cc(F)cc(Cl)c1)C1CCC2(CC1)CN(Cc1cccc(C(F)(F)F)c1)C2` [Example 24], for which the IC50 under setting [2] is under 1000 nM and the IC50 under setting [1] worked out at 890 nM. In the case of `O=C(CN1CC2(CCC(C(=O)Nc3cc(F)cc(Cl)c3)CC2)C1)NC1(C(F)(F)F)COC1` [Example 89], the IC50 under setting [1] is 522 nM. Take `O=C(Nc1cc(F)cc(C(F)F)c1)C1CCC2(CC1)CN(CCC1CCC(F)(F)CC1)C2` [Example 37]: the IC50 runs as follows: under setting [2], under 1000 nM; under setting [1], 323 nM. Take `COc1cc(NC(=O)C2CCC3(CC2)CN(CC(=O)NC(C)(C)C)C3)ccc1Cl` [Example 157]: the IC50 under setting [1] was found to be 129 nM. With `CC(C)(CCN1CC2(CCC(C(=O)Nc3cc(F)cc(C(F)F)c3)CC2)C1)C(F)(F)F` [Example 36], the IC50 is, setting by setting: under setting [2], under 1000 nM; under setting [1], 327 nM. Turning to `CC1(C(=O)NCCN2CC3(CCC(C(=O)Nc4cc(F)cc(C(F)F)c4)CC3)C2)CCC1` [Example 53], under setting [1], the IC50 is 447 nM. Take `CC(C)(C)NC(=O)CN1CC2(CCC(C(=O)Nc3cccc(C(F)F)c3)CC2)C1` [Example 62]: the IC50 under setting [1] was 511 nM.

With `COc1cc(F)cc(NC(=O)C2CCC3(CC2)CN(CC2(C#N)CCCCC2)C3)c1` [Example 96], the IC50 under setting [1] is 814 nM.

On to `O=C(Nc1cc(F)cc(Cl)c1)C1CCC2(CC1)CN(CC1CCC(F)(F)CC1)C2` [Example 61], for which, under setting [1], the IC50 was 440 nM. On the same count and under the same terms, the result for `CC(C)(C)NC(=O)CN1CC2(CCC(CNC(=O)c3cccc(Cl)c3)CC2)C1` [Example 145] reads 569 nM.
